According to publication PMC11306024, “Novel metabolite madeirone and neomarinone extracted from Streptomyces aculeoletus as marine antibiofilm and antifouling agents” (Frontiers in Chemistry, 2024):

Tests used:
P. inhibens [1] = test: Antibacterial activity (growth inhibition, OD600); assay type: cell-based, Phaeobacter inhibens DSM 17395; details: 48 h
Protocol: (§1) To assess antimicrofouling activity, we selected five marine bacterial species as models: Marinobacter hydrocarbonoclasticus DSM 8798 (ATCC 49840), C. marina DSM 4741, Phaeobacter inhibens DSM 17,395, Pseusooceanicola batsensis DSM 15,984, and Micrococcus luteus DSM 20030 (ATCC 4698) ([Michael et al., 2016]). These strains, sourced from DSMZ (Leibniz Institute DSMZ—German Collection of Microorganisms and Cell Cultures), were cultured in liquid marine broth (Carl Roth GmbH, Karlsruhe, Germany) with agitation at 180 rpm or on agar-supplemented marine broth. Incubation temperatures were set at 28°C for M. hydrocarbonoclasticus and Cobetia marina, 30°C for P. inhibens and P. batsensis, while M. luteus was maintained at 37°C in Brain Heart Infusion broth (BHI, Becton Dickinson, GmbH, Heidelberg, Germany) under similar agitation conditions.
(§2) The antibacterial efficacy of compounds (1) and (2) was assessed in 96-well polystyrene flat-bottom microplates (Nunclon Delta Surface, Thermo Scientific, Roskilde, Denmark) following established procedures ([Bauermeister et al., 2019]). In the initial screening, bacterial overnight cultures were diluted to an optical density (OD600nm) of 0.2 and incubated statically at appropriate temperatures. The cultures were treated with the following final concentrations per well: 31.25, 15.60, 7.81, 3.91, 1.95, and 0.98 μg/mL (2-fold serial dilutions) of the compounds, solubilized in DMSO, or left untreated. After 24 h (M. hydrocarbonoclasticus, C. marina) or 48 h (P. batsensis, P. inhibens, M. luteus) incubation, optical density at 600 nm (OD600) was measured using a Molecular Devices Spectra Max 190. Growth inhibition percentages were calculated relatively to untreated bacterial species, using DMSO as a negative control. CuSO4 (0.16 μg/mL), a recognized antifouling agent, was used as positive control. All assays were conducted in triplicate, and the results represent the mean and standard error of the mean (SEM). Statistical analysis was carried out using GraphPad Prism 8.0.2 (San Diego, CA, United States), employing one-way ANOVA followed by Dunnett’s multiple comparisons test against the negative control.

C. marina [2] = test: Antibacterial activity (growth inhibition, OD600); assay type: cell-based, Cobetia marina DSM 4741; details: 24 h; for inhibition at 15.6 µg/mL: 15.60 µg/mL
Protocol: as §1, §2

M. luteus = test: Antibacterial activity (growth inhibition, OD600); assay type: cell-based, Micrococcus luteus DSM 20030; details: 48 h
Protocol: as §1, §2

P. inhibens [3] = test: Antibiofilm activity (inhibition of biofilm formation); assay type: cell-based, Phaeobacter inhibens DSM 17395; details: for Biofilm inhibition, up to (highest over tested concentrations) P. inhibens: 0.98-31.25 µg/mL tested; for inhibition at 15.6 µg/mL: 15.60 µg/mL
Protocol: as §1
(§3) The antibiofilm potential of compounds (1) and (2) against the five marine bacterial species was investigated in 96-well polystyrene flat-bottom microplates (Nunclon Delta Surface, Thermo Scientific, Roskilde, Denmark), as described previously ([Bauermeister et al., 2019]; [Pereira et al., 2020]). In the initial screening, bacterial overnight cultures were diluted to an OD600 of 0.2 and incubated statically at appropriate temperatures. The cultures were tested at 31.25, 15.60, 7.81, 3.91, 1.95, 0.98 μg/mL concentrations (2-fold serial dilutions) of compounds (1) and (2), solubilized in DMSO, or left untreated. After 24 h (M. hydrocarbonoclasticus, C. marina) or 48 h (P. batsensis, P. inhibens, M. luteus) incubation, OD600 was measured. The planktonic cells and media were discarded, and the wells were washed twice with deionized water. Biofilms were fixed, stained, and quantified by measuring the OD600 after solubilization with acetic acid. Biofilm inhibition percentages were calculated relative to untreated bacterial species, using DMSO as a negative control and CuSO4 (0.16 μg/mL), as a positive control. All assays were performed in triplicate, and the results represent the mean and standard error of the mean (SEM). Statistical analysis was conducted using GraphPad Prism 8.0.2, employing one-way ANOVA followed by Dunnett’s multiple comparisons test against the negative control.

C. marina [4] = test: as above; assay type: cell-based, Cobetia marina DSM 4741; details: for Biofilm inhibition, up to (highest over tested concentrations) C. marina: 0.98-31.25 µg/mL tested; for inhibition at 0.98 µg/mL / inhibition at 1.95 µg/mL / inhibition at 3.91 µg/mL / inhibition at 7.81 µg/mL / inhibition at 15.6 µg/mL / inhibition at 31.25 µg/mL: Cobetia marina, 24 h; for inhibition at 15.6 µg/mL: 15.60 µg/mL
Protocol: as §1, §3

[5] = test system: Pseudokirchneriella subcapitata; test: Algal growth inhibition test (OECD 201); assay type: cell-based
Protocol: The in vivo evaluation of compounds (1) and (2) for acute toxicity was performed towards marine bacterium Aliivibrio fischeri, and planktonic crustacean Daphnia magna. The chronic ecotoxicity tests were evaluated using algae Pseudokirchneriella subcapitata and Phaeodactylum tricornutum.
Freshwater and marine algal growth inhibition was assessed using P. subcapitata and P. tricornutum according to OECD Guideline 201 procedures (“Alga, Growth Inhibition Test”), ISO-8692 (“Water quality–Fresh water algal growth inhibition test with unicellular green algae”) and ISO-10253. Briefly, the algae cells were de-immobilized from algal beads using Matrix dissolving medium (Microbiotests), according to the manufacturer’s instructions, and grown in flasks containing algal culturing medium which was prepared following the OECD Guideline 201 and ISO-8692. Flasks with algae were kept for 7 days under light with orbital agitation. When the algae culture had sufficient cells, as verified by the optical density at 670 nm, these were tested at an initial cell density of 1 × 10^6 cells/mL in algal culturing medium. Madeirone (1) and neomarinone (2) were dissolved in DMSO and tested at the concentrations of 100, 50, 25, 12.5, 6.25, 3.13, and 1.56 μg/mL. The algae were cultured in microplates in triplicate and were kept for 4 days under light with orbital agitation. […] Each experiment was performed in triplicate and the results of two independent experiments with <10% SD are presented. Growth inhibition calculations were performed using cell numbers (biomass), as determined by a calibration line. Potassium dichromate (K2Cr2O7) was used as a positive control.

Structure (SMILES)	Growth inhibition (%) P. inhibens (P. inhibens [1]; 0.98 µg/mL)	Growth inhibition (%) P. inhibens (P. inhibens [1]; 1.95 µg/mL)	Growth inhibition (%) P. inhibens (P. inhibens [1]; 3.91 µg/mL)	Growth inhibition (%) P. inhibens (P. inhibens [1]; 7.81 µg/mL)	Growth inhibition (%) P. inhibens (P. inhibens [1]; 15.60 µg/mL)	inhibition at 7.81 µg/mL (C. marina [2]; Cobetia marina) [%]	inhibition at 15.6 µg/mL (C. marina [2]; Cobetia marina) [%]	inhibition at 31.25 µg/mL (C. marina [2]; Cobetia marina) [%]	Growth inhibition (%) M. luteus (M. luteus; 15.60 µg/mL)	Biofilm inhibition (%) P. inhibens (P. inhibens [3]; 0.98 µg/mL, 48 h)	Biofilm inhibition (%) P. inhibens (P. inhibens [3]; 1.95 µg/mL, 48 h)	Biofilm inhibition, up to (highest over tested concentrations) P. inhibens (P. inhibens [3])	inhibition at 7.81 µg/mL (P. inhibens [3]; Phaeobacter inhibens, 48 h) [%]	inhibition at 15.6 µg/mL (P. inhibens [3]; Phaeobacter inhibens, 48 h) [%]	inhibition at 31.25 µg/mL (P. inhibens [3]; Phaeobacter inhibens, 48 h) [%]	Biofilm inhibition, up to (highest over tested concentrations) C. marina (C. marina [4])	inhibition at 0.98 µg/mL (C. marina [4]) [%]	inhibition at 1.95 µg/mL (C. marina [4]) [%]	inhibition at 3.91 µg/mL (C. marina [4]) [%]	inhibition at 7.81 µg/mL (C. marina [4]) [%]	further results
CC1=CCC[C@@H](C)[C@]1(C)CC[C@@]1(C)c2c(O)cc3c(c2O[C@@H]1C)C(=O)C=C(CO)C3=O (relative stereo) [compound 1, madeirone]	N.I.	N.I.	N.I.	N.I.	N.I.	10 ± 2.1	7.7 ± 4	12.7 ± 2.7	N.I.	N.I.	N.I.	up to 66%	33.9 ± 1.3	53 ± 1	66.7 ± 0.3	up to 40%	28.6 ± 23.2	31.6 ± 15.3	36.3 ± 6.4	39.2 ± 5.4	inhibition at 31.25 µg/mL (P. inhibens [1]; Phaeobacter inhibens, 31.25 µg/mL): 24.3 ± 0.5%; Growth inhibition (%) C. marina (C. marina [2]; 0.98 µg/mL): N.I.; Growth inhibition (%) C. marina (C. marina [2]; 1.95 µg/mL): N.I.; Growth inhibition (%) C. marina (C. marina [2]; 3.91 µg/mL): N.I.; Growth inhibition (%) M. luteus (M. luteus; 0.98 µg/mL): N.I.; Growth inhibition (%) M. luteus (M. luteus; 1.95 µg/mL): N.I.; Growth inhibition (%) M. luteus (M. luteus; 3.91 µg/mL): N.I.; Growth inhibition (%) M. luteus (M. luteus; 7.81 µg/mL): N.I.; inhibition at 15.6 µg/mL (M. luteus; Micrococcus luteus, 15.60 µg/mL): 9.2%; inhibition at 31.25 µg/mL (M. luteus; Micrococcus luteus, 31.25 µg/mL): 20 ± 0.5%; inhibition at 3.91 µg/mL (P. inhibens [3]; Phaeobacter inhibens, 3.91 µg/mL, 48 h): 10.2 ± 3.7%; inhibition at 15.6 µg/mL (C. marina [4]): 41.7 ± 10%; inhibition at 31.25 µg/mL (C. marina [4]): 31 ± 9.6%; Inhibition (%) P. subcapitata (growth) ([5]; 25 µg/mL): 9.1%; Inhibition (%) P. subcapitata (growth) ([5]; 50 µg/mL): 27.3%; Inhibition (%) P. subcapitata (growth) ([5]; 100 µg/mL): 52.8%
CC1=CCC[C@@H](C)[C@]1(C)CC[C@@]1(C)c2c(O)cc3c(c2O[C@@H]1C)C(=O)C(C)=C(O)C3=O [compound 2, neomarinone]	N.I.	N.I.	N.I.	N.I.	N.I.	9.2 ± 2.1	7.2 ± 2.9	1.1 ± 2	N.I.	N.I.	N.I.	up to 41%	11.6 ± 1.8	30 ± 0.6	41.3 ± 0.9	≤ 46%	26.5 ± 3.8	24.5 ± 3	26.9 ± 3.3	34.4 ± 7.4	Growth inhibition (%) P. inhibens (P. inhibens [1]; 31.25 µg/mL): N.I.; inhibition at 0.98 µg/mL (C. marina [2]; Cobetia marina, 0.98 µg/mL): 10.7 ± 2.2%; inhibition at 1.95 µg/mL (C. marina [2]; Cobetia marina, 1.95 µg/mL): 10.8 ± 3.1%; inhibition at 3.91 µg/mL (C. marina [2]; Cobetia marina, 3.91 µg/mL): 6.5 ± 1.2%; Growth inhibition (%) M. luteus (M. luteus; 31.25 µg/mL): N.I.; inhibition at 0.98 µg/mL (M. luteus; Micrococcus luteus, 0.98 µg/mL): 1.8 ± 0.4%; inhibition at 1.95 µg/mL (M. luteus; Micrococcus luteus, 1.95 µg/mL): 3.8 ± 1.7%; inhibition at 3.91 µg/mL (M. luteus; Micrococcus luteus, 3.91 µg/mL): 9 ± 0.9%; inhibition at 7.81 µg/mL (M. luteus; Micrococcus luteus, 7.81 µg/mL): 6.8 ± 1%; Biofilm inhibition (%) P. inhibens (P. inhibens [3]; 3.91 µg/mL, 48 h): N.I.; inhibition at 15.6 µg/mL (C. marina [4]): 42.6 ± 6.3%; inhibition at 31.25 µg/mL (C. marina [4]): 45.8 ± 2.9%; Inhibition (%) P. subcapitata (growth) ([5]; 50 µg/mL): 9.7%; Inhibition (%) P. subcapitata (growth) ([5]; 100 µg/mL): 26.2%
